Source: PubChem BioAssay (NCI)
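Where inhibition never reached the appropriate level, the endpoint shown equals the highest concentration tested. Otherwise, values were interpolated linearly from a five-concentration, 48-hour dose response in 96-well plates. The concentration for full growth arrest is given as TGI.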

Key:
Assay in all cases: NCI anticancer screen, dose series, 48 h
ACHN renal = system: ACHN renal
EKVX NSCLC = system: EKVX NSCLC
HS 578T breast = system: HS 578T breast
K-562 leukemia = system: K-562 leukemia
LOX IMVI melanoma = system: LOX IMVI melanoma
MDA-MB-231 breast = system: MDA-MB-231 breast
MDA-MB-435 = system: MDA-MB-435
MDA-N = system: MDA-N
OVCAR-3 ovarian = system: OVCAR-3 ovarian
PC-3 prostate = system: PC-3 prostate
SF-539 CNS = system: SF-539 CNS
SK-MEL-28 melanoma = system: SK-MEL-28 melanoma
SNB-19 CNS = system: SNB-19 CNS
SR leukemia = system: SR leukemia
TK-10 renal = system: TK-10 renal
SK-MEL-5 melanoma = system: SK-MEL-5 melanoma

Row | SMILES | TGI (ACHN renal) [µM] | TGI (EKVX NSCLC) [µM] | TGI (HS 578T breast) [µM] | TGI (K-562 leukemia) [µM] | TGI (LOX IMVI melanoma) [µM] | TGI (MDA-MB-231 breast) [µM] | TGI (MDA-MB-435) [µM] | TGI (MDA-N) [µM] | TGI (OVCAR-3 ovarian) [µM] | TGI (PC-3 prostate) [µM] | TGI (SF-539 CNS) [µM] | TGI (SK-MEL-28 melanoma) [µM] | TGI (SNB-19 CNS) [µM] | TGI (SR leukemia) [µM] | TGI (TK-10 renal) [µM] | TGI (SK-MEL-5 melanoma) [µM]
1 | CN(C)CCCNc1ccc2nnn3c4ccc(OC(=O)c5ccc([N+](=O)[O-])cc5)cc4c(=O)c1c23 | 14.1 | 25.1 | 34.8 | 18.9 | > 100 | 23.3 | 20.2 | 26 | 24.1 | 17.5 | 19.3 | 26.6 | 22.8 | 11.5 | 24.9 | 
2 | Nc1cccc(C#Cc2cccc(C#Cc3cccc(N)n3)n2)n1 | > 100 | > 100 | > 100 | > 100 | > 100 | > 100 | > 100 | > 100 | > 100 | > 100 | > 100 |  | > 100 | > 100 | > 100 | > 100
3 | Clc1ccc(-c2nc3ccc(C45CC6CC(CC(C6)C4)C5)cc3[nH]2)cc1 | > 100 | > 100 | > 100 | 0.0221 | > 100 | > 100 | > 100 | > 100 | > 100 | > 100 | > 100 | > 100 | > 100 | > 100 | 98.9 | 60.4
4 | O=C1CCc2cc3c(cc21)CC1(Cc2cc4c(cc2C1)CCCC4)C3 | > 100 | > 100 | 90.2 | > 100 | > 100 | > 100 | 51 | 39.4 | > 100 | > 100 | > 100 | > 100 | > 100 | 47.7 | > 100 | > 100
5 | C/C1=C\CC/C(C)=C/C=C(/C(C)C)CC/C(C(=O)O)=C/CC1 | > 100 | > 100 | > 100 | > 100 | > 100 | > 100 | > 100 | > 100 | 59.5 | > 100 | > 100 | > 100 | > 100 | > 100 | > 100 | > 100
6 | CC(C)(C)N(Cc1ccoc1)C(=O)/C=C\S(=O)c1ccccc1 (configuration not stated) | 86.5 | 75.5 | 68 | > 100 | 21.8 | 42.3 | 20.7 | 44.2 | 26.2 | 27.8 | 42.9 | 44.4 | 88.8 | 77.8 | > 100 | 27.4
7 | CCCCCCCCCC1CC(=O)NCC(=O)NC(C(C)C)C(=O)NC(CC(C)C)C(=O)NC(C)C(=O)NC(C(C)C)C(=O)O1 (configuration not stated) | > 100 | > 79.9 | 53 | > 53.3 | 30.8 | > 38.6 | 49.8 | > 100 | 28.8 | 22.4 | 43.4 | 36.6 | > 48.2 | > 92.4 | 68.9 | > 61.6
8 | O=C(n1c(=O)n(-c2ccc(Cl)cc2)c(=O)n1C(=O)C(Cl)(Cl)Cl)C(Cl)(Cl)Cl | > 100 | > 100 | > 100 | > 100 | > 100 | > 100 | > 100 | > 100 | > 100 | > 100 | > 100 | > 100 | > 100 | > 100 | > 100 | > 100
9 | CN(C)c1ccc(N=Nc2cccc3ncccc23)cc1 | > 100 | > 100 | > 100 | > 100 | > 100 | > 100 | > 79.8 | > 100 | > 100 | > 100 | > 100 | > 100 | > 100 | > 100 | > 100 | 61.2
10 | C1=NCCNCCN=Cc2ccccc2OCc2cccc(n2)COc2ccccc21 | > 100 | > 100 | > 100 | > 79.5 | 34 | > 95.5 | > 68.7 | 31.4 | > 65.3 | > 95.3 | 11.1 | > 100 | > 100 | > 100 | > 75.6 | > 49.5
11 | O=C(OC(/C=C/c1ccccc1)P1(=O)N(Cc2ccccc2)[C@@H]2CCCC[C@H]2N1Cc1ccccc1)c1ccccc1 (some centres not stated) | > 100 | > 100 | > 100 | > 100 | > 74.9 | 30.3 | > 100 | > 100 | > 100 | > 100 | > 100 | > 100 | > 100 | 15.2 | > 100 | 11.4
12 | CN1CCN(CCCCN2c3ccccc3Sc3ccc(N=[N+]=[N-])cc32)CC1 | 22.1 | 29.4 | 30.7 | 4.07 | 7.59 | 15 | 3.94 | 6.96 | 22.6 | 15.9 | 20.4 | 3.73 | 33.6 | 7.07 | 27.9 | 4.62
13 | CC1=NN(C(=O)c2ccccc2O)C(c2ccccc2Cl)C1C(=O)Nc1ccccc1 (configuration not stated) | > 100 | > 100 | > 100 | > 100 | > 36.5 | > 100 | > 100 | > 100 | > 51.3 | > 100 | 5.68 | > 100 | > 100 | > 100 | > 100 | 30.5
14 | [O-]c1c[n+](CC[n+]2cc([O-])on2)no1 | > 100 | > 100 | > 100 | > 100 | > 100 | > 100 | > 100 | > 100 | > 100 | > 100 |  | > 100 | > 100 | > 100 | > 100 | > 100
15 | COC(=O)CC1(O)C(/C=C/c2ccccc2)C(C(=O)OC)C(=O)C(C(=O)OC)C1C(=O)OC (configuration not stated) | > 100 | > 100 | > 100 | > 100 | > 100 | > 100 | > 100 | > 100 | > 100 | > 100 | > 100 | > 100 | > 100 | > 100 | > 100 | > 100
16 | COC(=O)CCC(C)C1CCC2C3CCC4CC5CCC4(C)C3(O5)C(Br)C(Br)C12C (configuration not stated) | > 100 | > 100 | > 100 | > 100 | > 100 | > 100 | > 100 | > 100 | > 100 | > 100 | > 100 | > 100 | > 100 | > 100 | > 100 | > 100
17 | O=CC1C[C@@H](N2C(=O)O[C@@H](c3ccccc3)[C@H]2c2ccccc2)[C@@H]1COCc1ccccc1 (some centres not stated) | 73.2 | 43.2 | 72.3 | > 100 | 38.6 | 30.7 | 51.4 | 38.1 | 36.4 | 43.1 | 37 | 40.4 | 37.6 | 45.7 | 44.5 | 29.1
18 | O/N=C1\CCc2cc3c(cc21)CCC3 | > 100 | > 100 | > 100 | > 100 | > 100 | > 100 | > 100 | > 100 | > 100 | > 100 | > 100 | > 100 | > 100 | > 100 | > 100 | > 100
19 | COc1ccc2c(c1)CCCN1Cc3ccccc3CC21 (configuration not stated) | > 100 | > 100 | > 100 | > 100 | > 100 | > 100 | > 100 | > 100 | > 100 | > 100 | > 100 | > 100 | > 100 |  | > 100 | 56.7
20 | CC(C)c1ccc2[nH]c(O)c(C3=Nc4ccccc4C3=O)c2c1 | 18.6 | 42.8 | 85.3 | > 100 | > 100 | 48 | > 100 | > 100 | 53.8 | 54.8 |  | > 100 | 57.2 | 54.5 | 54.2 | > 100
21 | CC[N+]1(C)CCC(O)(/C=C/c2ccc(Cl)cc2)C(C(=O)/C=C/c2ccc(Cl)cc2)C1 (configuration not stated) | 13.6 | > 57.3 | > 30.1 | 5.71 | > 21.6 | > 31.5 | 22.4 | > 34.4 | > 61 | 27.7 | > 20.5 | 23.2 | 17.4 |  | 13 | > 45.8
22 | Clc1ccc(-c2nnc(C34CC5CC(CC(C5)C3)C4)o2)cc1 | > 100 | > 100 | > 100 | > 100 | > 100 | > 100 | > 100 | > 100 | > 100 | > 100 | > 100 | > 100 | > 100 | > 100 |  | > 100
23 | Cc1ccc(CCCCCOc2ccc(C3=NCCO3)cc2)s1 | > 100 | > 100 | > 100 | > 100 |  | > 100 | > 100 | 62.6 | > 100 | > 100 |  | > 100 | > 100 | > 100 | > 100 | > 100
24 | COc1cc(C2(O)c3ccccc3C3=NCCN32)cc(OC)c1OC (configuration not stated) | > 100 |  | > 100 | > 100 | > 100 | > 100 | > 100 | > 100 | > 100 | > 100 |  | > 100 | > 100 | > 100 | > 100 | > 100
25 | CCN(CC)CCC(=O)c1ccc(Oc2ccccc2)cc1 | 29.3 | 41.4 | 52.6 | > 100 | 31.3 | 36.7 | 40.2 | 30.1 | 45.3 | > 100 | 34 | 32.5 | 38.2 | > 100 | 27.5 | 
26 | O=[N+]([O-])/C=C/COCc1cc2c(cc1Br)OCO2 | 30 | 48.8 | 50.3 | > 100 | > 100 | 33 | 27.1 | 32.8 | 30.3 | 25.6 | 63.6 | 25.4 |  | 54.1 | 34.8 | 37.1
27 | CC1CC(C)(O)CC(C(O)CC2CC(=O)NC(=O)C2)C1=O (configuration not stated) | 1.17 | 3.45 | 0.316 | 0.706 | 0.785 | 0.0651 | 2.1 | 1.16 | 3.43 | 5.63 | 0.226 | 3.55 | 2.24 |  | 3.99 | 0.195
28 | COC(=O)C1(C)CCCC2(C)C3CCC4CC3(C=C4CO)CCC12 (configuration not stated) | > 100 | > 100 | > 100 |  | 47.4 | > 100 | > 100 | > 100 | > 100 | > 100 | > 100 | > 100 | > 100 | 62 | > 100 | > 100
29 | CC(C)c1nc2c(Cl)c3ncccc3cc2[nH]c1=O | > 100 | > 100 | > 100 | > 100 |  | > 100 | > 100 | > 100 | > 100 | > 100 | > 100 | > 100 | > 100 | > 100 |  | > 100
30 | COC(=O)c1c(O)ccc2c1c1c(n2-c2ccc(OC)cc2)C(=O)c2ccccc2C1=O | 25.6 | 39.6 | 46.4 | > 100 | > 100 | 32.7 | > 100 | > 100 | 65.2 | 74.1 | 29.9 | > 100 | 44.7 |  | 39.5 | > 100
